# According to EP2926811A1, “ARTEMETHER-CONTAINING PHARMACEUTICAL COMPOSITION, PREPARATION, AND USE THEREOF” (Kunming Pharmaceutical Corp., priority 2012, dated 2014):
# Where two headings read alike, the source gives them in different places.
# Assays:
# Format in all cases: cell-based
# A549 cells = assay: modified MTT method, proliferation of A549 cells; conditions: Homo sapiens, read-out: IC50 on the growth of A549 cells
# Description: (§1) Five test concentrations 2, 10, 50, 250 and 500 µM were set for each of five derivatives of artemisinin, artemether drug substance, artemisinin, dihydroartemisinin, artesunate were dissolved with dimethyl sulfoxide (DMSO), while the lyophilized powder of artemether was dissolved with normal saline (N.S.), followed by addition of a certain amount of RPMI 1640 complete culture solution to formulate a high-concentration solution, and each of the low-concentration solutions was formulated by proportionate dilution from the high-concentration solution.
# (§2) The concentrations of DMSO contained in the solutions at the two relatively high concentrations 500 and 250 µM for the artemether drug substance, artemisinin, dihydroartemisinin, artesunate, used as solvent controls, were formulated with […] culture solution, at which time the test concentrations of DMSO were 1% and 0.5%. The concentrations of the excipients contained in the solutions at the two relatively high concentrations 500 and 250 µM for the preparation of lyophilized powder of artemether were used as solvent controls.
# (§3) The positive control was an anti-cancer drug adriamycin (ADM), which was set at three test concentrations (final concentrations) of 0.1, 1 and 10 µg/ml. To ADM stock solution (1 mg/ml) a certain amount of PRMI 1640 complete culture solution was added, to formulate a high-concentration solution, and each of the low-concentration solutions were formulated by proportionate dilutions from the high-concentration solution.
# (§4) HL-60: (human promyelocytic leukemia cell line); K562 (human chronic myelocytic leukemia cell line); HT-29 (human colon cancer cell line); PC-3 (human prostate cancer cell line); A549 (human non-small cell lung cancer cell line); MKN-28 (human gastric cancer cell line); Hep2 (human laryngeal cancer cell line), all of which were purchased from Cell Bank of Shanghai Institutes for Biological Sciences, the Chinese Academy of Sciences.
# (§5) Influence of the five test samples on the proliferation of 7 human tumor cell lines was determined via a modified MTT method.
# (§6) Cells in logarithmic growth phase were taken, adjusted to a certain concentration and then added into a 96 well culture plate. After culture of adherent cells for a period until adherence, the test samples were added; and for suspension cells, the test samples were added after inoculation. 5 test concentrations 2, 10, 50, 250 and 500 µM were set, with 3 parallel wells for each concentration, 10 µl/well; the solvent controls were 0.5% and 1% of isovolumetric DMSO, and the positive controls was ADM at 3 concentrations 0.1, 1 and 10 µg/ml. The samples were loaded followed by culture for a period of time in an incubator at 37°C, 5% CO2, followed by addition of MTT (5 mg/ml) at 20 µl/well, and continued to be cultured for a period of time and added with a three-combined solution [10% SDS - 5% isobutanol - 0.012 mol/L HCl (W/V/V)]. After dissolving in uniformity, it was continued to be placed in the incubator at 37°C, 5% CO2 for a period of time, and the OD value of each well was determined under a wavelength of 570 nm with a microplate reader, according to which the results were calculated.
# (§7) The cellular proliferation inhibition rate was calculated in accordance with the following equation: Inhibition rate (%) = (OD valuecontrol well-OD valuesample well)/OD valuecontrol well × 100% [formula]
# (§8) When the inhibition rate of DMSO on cells was more than 15%, calculation was carried out using the following equation: Inhibition rate (%) = (OD valuesolvent group-OD valueadministered well)/OD valuesolvent group × 100% [formula]
# (§9) The inhibition rate was calculated by using Microsoft Excel 2003, and median inhibitory concentration IC50 was calculated with a LOGIT method, which was used as an indicator for judging the inhibitory capability.
# Hep2 cells = assay: modified MTT method, proliferation of Hep2 cells; conditions: Homo sapiens, HEp-2, 72 h, secondary screening
# Description: as §1, §2, §3, §4, §5, §6, §7, §8, §9
# (§10) According to the results of preliminary screening, further experiments were adjusted such that more sensitive cell lines were screened out. […]
# PC-3 cells = assay: modified MTT method, proliferation of PC-3 cells; conditions: Homo sapiens, read-out: IC50 on the growth of PC-3 cells
# Description: as §1, §2, §3, §4, §5, §6, §7, §8, §9
# MKN-28 cells = assay: modified MTT method, proliferation of MKN-28 cells; conditions: Homo sapiens, MKN-28, 72 h, secondary screening
# Description: as §1, §2, §3, §4, §5, §6, §7, §8, §9, §10
# HL-60 cells = assay: modified MTT method, proliferation of HL-60 cells; conditions: Homo sapiens, read-out: IC50 on the growth of HL-60 cells
# Description: as §1, §2, §3, §4, §5, §6, §7, §8, §9
# HT-29 cells = assay: modified MTT method, proliferation of HT-29 cells; conditions: Homo sapiens
# Description: as §1, §2, §3, §4, §5, §6, §7, §8, §9, §10
# K562 cells = assay: modified MTT method, proliferation of K562 cells; conditions: Homo sapiens, read-out: IC50 on the growth of K562 cells
# Description: as §1, §2, §3, §4, §5, §6, §7, §8, §9
structure (smiles),measurement,setting,value
"COc1cccc2c1C(=O)c1c(O)c3c(c(O)c1C2=O)C[C@@](O)(C(=O)CO)C[C@@H]3O[C@H]1C[C@H](N)[C@H](O)[C@H](C)O1 [ADM, adriamycin]",IC50,"A549 cells; A549, 24 h, Batch 1, 24 h",38800 nM
same,IC50,"A549 cells; A549, 24 h, Batch 2, 24 h",> 100000 nM
same,IC50,"A549 cells; A549, 48 h, Batch 1, 48 h",10700 nM
same,IC50,"A549 cells; A549, 48 h, Batch 2, 48 h",620 nM
same,IC50,"A549 cells; A549, 72 h, Batch 1, 72 h",760 nM
same,IC50,"A549 cells; A549, 72 h, Batch 2, 72 h",190 nM
same,IC50,"Hep2 cells; Batch 1, read-out: IC50 on the growth of Hep2 cells (72 h)",410 nM
same,IC50,"Hep2 cells; Batch 2, read-out: IC50 on the growth of Hep2 cells (72 h)",260 nM
same,IC50,"Hep2 cells; Batch 3, read-out: IC50 on the growth of Hep2 cells (72 h)",1000 nM
same,IC50,"Hep2 cells; average, read-out: IC50 on the growth of Hep2 cells (72 h)",510 nM
same,IC50,"PC-3 cells; PC-3, 24 h, Batch 1, 24 h",33000 nM
same,IC50,"PC-3 cells; PC-3, 24 h, Batch 2, 24 h",47800 nM
same,IC50,"PC-3 cells; PC-3, 48 h, Batch 1, 48 h",7600 nM
same,IC50,"PC-3 cells; PC-3, 48 h, Batch 2, 48 h",9620 nM
same,IC50,"PC-3 cells; PC-3, 72 h, Batch 1, 72 h",3160 nM
same,IC50,"PC-3 cells; PC-3, 72 h, Batch 2, 72 h",3740 nM
same,IC50,"MKN-28 cells; Average, read-out: IC50 on the growth of MKN-28 cells (72 h)",510 nM
same,IC50,"MKN-28 cells; Batch 1, read-out: IC50 on the growth of MKN-28 cells (72 h)",520 nM
same,IC50,"MKN-28 cells; Batch 2, read-out: IC50 on the growth of MKN-28 cells (72 h)",530 nM
same,IC50,"MKN-28 cells; Batch 3, read-out: IC50 on the growth of MKN-28 cells (72 h)",470 nM
same,IC50,"HL-60 cells; HL-60, 24 h, Batch 1, 24 h",9240 nM
same,IC50,"HL-60 cells; HL-60, 24 h, Batch 2, 24 h",4190 nM
same,IC50,"HL-60 cells; HL-60, 48 h, Batch 1, 48 h",1720 nM
same,IC50,"HL-60 cells; HL-60, 48 h, Batch 2, 48 h",160 nM
same,IC50,"HL-60 cells; HL-60, 72 h, Batch 1, 72 h",780 nM
same,IC50,"HL-60 cells; HL-60, 72 h, Batch 2, 72 h",570 nM
same,IC50,"HT-29 cells; HT-29, 24 h, preliminary screening, Batch 1, 24 h, read-out: IC50 on the growth of HT-29 cells",2280 nM
same,IC50,"HT-29 cells; HT-29, 24 h, preliminary screening, Batch 2, 24 h, read-out: IC50 on the growth of HT-29 cells",3810 nM
same,IC50,"HT-29 cells; HT-29, 48 h, preliminary screening, Batch 1, 48 h, read-out: IC50 on the growth of HT-29 cells",280 nM
same,IC50,"HT-29 cells; HT-29, 48 h, preliminary screening, Batch 2, 48 h, read-out: IC50 on the growth of HT-29 cells",590 nM
same,IC50,"HT-29 cells; HT-29, 72 h, preliminary screening, Batch 1, 72 h, read-out: IC50 on the growth of HT-29 cells",57 nM
same,IC50,"HT-29 cells; HT-29, 72 h, preliminary screening, Batch 2, 72 h, read-out: IC50 on the growth of HT-29 cells",110 nM
same,IC50,"HT-29 cells; HT-29, 72 h, secondary screening, 72 h, Batch 1, read-out: IC50 on the growth of HT-29 cells (72 h)",110 nM
same,IC50,"HT-29 cells; HT-29, 72 h, secondary screening, 72 h, Batch 2, read-out: IC50 on the growth of HT-29 cells (72 h)",190 nM
same,IC50,"HT-29 cells; HT-29, 72 h, secondary screening, 72 h, Batch 3, read-out: IC50 on the growth of HT-29 cells (72 h)",120 nM
same,IC50,"HT-29 cells; HT-29, 72 h, secondary screening, 72 h, average, read-out: IC50 on the growth of HT-29 cells (72 h)",110 nM
same,IC50,"K562 cells; K562, 24 h, Batch 1, 24 h",7090 nM
same,IC50,"K562 cells; K562, 24 h, Batch 2, 24 h",5760 nM
same,IC50,"K562 cells; K562, 24 h, Batch 3, 24 h",2590 nM
same,IC50,"K562 cells; K562, 48 h, Batch 1, 48 h",1900 nM
same,IC50,"K562 cells; K562, 48 h, Batch 2, 48 h",240 nM
same,IC50,"K562 cells; K562, 48 h, Batch 3, 48 h",1690 nM
same,IC50,"K562 cells; K562, 72 h, Batch 1, 72 h",170 nM
same,IC50,"K562 cells; K562, 72 h, Batch 2, 72 h",9.93 nM
same,IC50,"K562 cells; K562, 72 h, Batch 3, 72 h",740 nM
